These results are taken from US10030006B2, “Coumarin based Hsp90 inhibitors with urea and ether substituents” (University of Kansas, priority 2013, dated 2018).

In test [1] the test system is SKBr3 (estrogen receptor negative, Her2 over-expressing breast cancer cells). To be noted: background, Marcu, et al., 2000; read-out: Hsp90 C-terminal inhibitor efficiency in SKBr3 cells; cited from earlier work.
A further test concerns PC-3. Put plainly: Anti-proliferation assay, PC-3. To be noted: Homo sapiens, PC-3; Table 7, prenylated phenyl ureas; Prostate Cancer. The format is cell-based. The gist of the method: (§1)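 Seeding density 2000 cells/well; 72 h treatment at varying concentrations, DMSO held at 1%. Viability determined by MTS/PMS kit, with vehicle-treated cells defining full proliferation, and IC50 calculated across separate triplicate experiments.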

For another test, the system named is HCT-116. Put plainly: Anti-proliferation assay, HCT-116. It counts as cell-based. To be noted: Homo sapiens, HCT-116; Table 7, prenylated phenyl ureas. The gist of the method:
as §1

The test system of another test is MDAMB231. Put plainly: Anti-proliferation assay, MDAMB231. It counts as cell-based. To be noted: Homo sapiens, MDA-MB-231; Table 7, prenylated phenyl ureas; Tri-Neg. The method, boiled down:
as §1

The test system of test [2] is MCF-7 (estrogen receptor positive breast cancer cells). Description: Anti-proliferation assay (MTS/PMS, 72 h), MCF-7. The settings on record: Homo sapiens, MCF7. The format is cell-based.
In test [3] the test system is SKBr3 (estrogen receptor negative, Her2 over-expressing breast cancer cells). Put plainly: Anti-proliferation assay (MTS/PMS, 72 h), SKBr3. To be noted: Homo sapiens, SK-BR-3. The format is cell-based.
The subject of another test is MRC5. Description: Anti-proliferation assay, MRC5 (normal). To be noted: Homo sapiens, MRC5, Table 7, prenylated phenyl ureas. The format is cell-based. The method, boiled down:
as §1

The subject of the next test is HMLE. Put plainly: Anti-proliferation assay, HMLE (normal). The format is cell-based. The settings on record: HMLE, Table 7, prenylated phenyl ureas. The method, boiled down:
as §1

Test [4] deals with SKBr3 and MCF-7 cell lines. Put plainly: Anti-proliferative activity against both breast cancer cell lines (results in words). The settings on record: text b189, two breast cancer cell lines. It counts as cell-based. The gist of the method: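 Viability after 72 h compound treatment was read with MTS/PMS in cells plated overnight at 2000 per well. Wells with 1% DMSO, the final solvent level, served as 100% proliferation; IC50 values came from separate triplicate runs.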

For a further test, the system named is JMAR. Description: Anti-proliferation assay, JMAR. The format is cell-based. The settings on record: JMAR; Table 7, prenylated phenyl ureas; HSNCC. The gist of the method: as §1
In a further test the test system is BCPAP. Put plainly: Anti-proliferation assay, BCPAP. It counts as cell-based. To be noted: Homo sapiens, BCPAP; Table 7, prenylated phenyl ureas; Thyroid. On the procedure: Cells were maintained in a 1:1 mixture of Advanced DMEM/F12 (Gibco) supplemented with non-essential amino acids, L-glutamine (2 mM), streptomycin (500 μg/mL), penicillin (100 units/mL), and 10% FBS. Cells were grown to confluence in a humidified atmosphere (37° C., 5% CO2), seeded (2000/well, 100 μL) in 96-well plates, and allowed to attach overnight. Compound at varying concentrations in DMSO (1% DMSO final concentration) was added, and cells were returned to the incubator for 72 h. At 72 h, the number of viable cells was determined using an MTS/PMS cell proliferation kit (Promega) per the manufacturer's instructions. Cells incubated in 1% DMSO were used at 100% proliferation, and values were adjusted accordingly. IC50 values were calculated from separate experiments performed in triplicate using GraphPad Prism.

A further test relates to A-549. Put plainly: Anti-proliferation assay, A-549. The format is cell-based. The settings on record: Homo sapiens, A549; Table 7, prenylated phenyl ureas. The method, boiled down: as §1
A further test deals with MDA1986. Description: Anti-proliferation assay, MDA1986. To be noted: MDA1986; Table 7, prenylated phenyl ureas; HSNCC. The format is cell-based. The gist of the method: as §1
The next test deals with DRO81-1. Put plainly: Anti-proliferation assay, DRO81-1. The format is cell-based. To be noted: Table 7, prenylated phenyl ureas; Thyroid. The gist of the method:
as §1

Structures are written as SMILES. pIC50: −log10 of the molar value. Like-named read-outs stand apart in the source and are kept apart here.

Turning to `CO[C@@H]1[C@@H](OC(N)=O)[C@@H](O)[C@H](Oc2ccc3c(O)c(NC(=O)c4ccc(O)c(CC=C(C)C)c4)c(=O)oc3c2C)OC1(C)C` [Novobiocin], the pIC50 in test [1] was about 3.15.

In the case of `CC(C)=CCc1cc(NC(=O)Nc2cc3ccc(OC4CCN(C)CC4)c(C)c3oc2=O)ccc1O` [OH, 1-(4-hydroxy-3-(3-methylbut-2-en-1-yl)phenyl)-3-(8-methyl-7-((1-methylpiperidin-4-yl)oxy)-2-oxo-2H-chromen-3-yl)urea], the pIC50 is 6.54 with PC-3; 6.41 in the test with HCT-116; 6.18 in the test on MDAMB231; 6.43 in [2] (Table 7, prenylated phenyl ureas, Breast Cancer, read-out: IC50 MCF-3); 6.43 in [2] (amide versus urea linkage, read-out: IC50 for MCF-3); 6.41 in test [3] (Table 7, prenylated phenyl ureas, Breast Cancer, read-out: IC50 SKBr3). The pIC50 was 6.41 in [3] (amide versus urea linkage, read-out: IC50 for SKBr3); 5.40 in the test on MRC5; 5.32 in the test on HMLE; 6.04 with JMAR; 6.00 in the test with BCPAP; 6.60 in the test on A-549. The pIC50 in the test with MDA1986 was 5.87; with DRO81-1 it was 5.96. For the same compound, the “increase in inhibition, urea versus amide linkage” value in test [4] is given as 2-3 fold.
